pIC50: −log10 of the molar value. Activity calls are given as the source filed them. The calls are words filed in the database; no cut-off is given here.
Assays:
[1] = target: T1, GNAQ/GNA11 (Homo sapiens) (UniProt P50148+P29992); experiment: Inhibition of Galphaq/11 (unknown origin) expressed in CHO-M1 cells at 10 uM preincubated for 1 hr followed by carbachol stimulation for 30 mins and measured after 1 hr by IP1 accumulation based HTRF assay relative to control; assay type: cell-based; settings: time 150.0 min
A-375 = experiment: Antiproliferative activity against human A-375 cells assessed as reduction in cell viability at 10 uM measured after 72 hrs by CCK-8 method; assay type: functional, cell-based
SK-MEL-2 = experiment: Antiproliferative activity against human SK-MEL-2 cells assessed as reduction in cell viability at 10 uM measured after 72 hrs by CCK-8 method; assay type: functional, cell-based
MP41 [2] = experiment: Antiproliferative activity against human MP41 cells assessed as reduction in cell viability at 1.25 uM measured after 72 hrs by CCK-8 method; assay type: functional, cell-based
921 = experiment: Antiproliferative activity against human 921 cells assessed as reduction in cell viability at 1.25 uM measured after 72 hrs by CCK-8 method; assay type: functional, cell-based
MP41 [3] = experiment: Inhibition of colony formation in human MP41 cells assessed as inhibition of cell proliferation incubated for 14 days with replacement with fresh medium for every 3 days by crystal violet staining based analysis; assay type: functional; settings: dose 1-5 µM, time 14.0 day
MP41 [4] = experiment: Inhibition of cell invasion in human MP41 cells measured after 48 hrs by crystal violet staining based Boyden chamber invasion assay; assay type: functional; settings: dose 3-10 µM
MP41 [5] = experiment: Inhibition of cell migration in human MP41 cells incubated for 24 hrs by wound healing assay; assay type: functional, cell-based; settings: dose 3-10 µM
[6] = target: T2, Mitogen-activated protein kinase; ERK1/ERK2 (Homo sapiens) (UniProt P27361+P28482); experiment: Inhibition of ERK1/2 phosphorylation in human MP41 cells at 20 uM by Western blot analysis; assay type: cell-based; settings: time <= 24.0 hrs, TDE = time-dependent effect
[7] = target: Transcriptional coactivator YAP1 (Homo sapiens) (UniProt P46937); experiment: Activation of YAP phosphorylation in human MP41 cells at 20 uM by Western blot analysis; assay type: cell-based; settings: filed as activator, time <= 24.0 hrs, TDE = time-dependent effect
[8] = target: T2, Mitogen-activated protein kinase; ERK1/ERK2 (Homo sapiens); experiment: Inhibition of ERK1/2 phosphorylation in human MP41 cells incubated for 4 hrs by Western blot analysis; assay type: cell-based; settings: dose 3-20 µM
[9] = target: T2, Mitogen-activated protein kinase; ERK1/ERK2 (Homo sapiens); experiment: Inhibition of ERK1/2 phosphorylation in human MP41 cells incubated for 24 hrs by Western blot analysis; assay type: cell-based; settings: dose 3-20 µM
[10] = target: Transcriptional coactivator YAP1 (Homo sapiens) (UniProt P46937); experiment: Activation of YAP phosphorylation in human MP41 cells incubated for 4 hrs by Western blot analysis; assay type: cell-based; settings: filed as activator, dose 3-20 µM
[11] = target: Transcriptional coactivator YAP1 (Homo sapiens) (UniProt P46937); experiment: Activation of YAP phosphorylation in human MP41 cells incubated for 24 hrs by Western blot analysis; assay type: cell-based; settings: filed as activator, dose 3-20 µM
[12] = target: T1, GNAQ/GNA11 (Homo sapiens); experiment: Binding affinity to Galphaq/11 (unknown origin) assessed as increase in thermal stability at 10 uM incubated for 1 hr by CETSA; assay type: protein assay
[13] = target: T3, Type-1 angiotensin II receptor (Homo sapiens) (UniProt P30556); experiment: (§1) Inhibition of human AT1R expressed in HEK293 cells using […] incubated for 1 hr followed by addition of angiotensinII and substrate by BRET assay; assay type: cell-based; settings: dose 0.3-100 µM
T3 sequence (whole entry): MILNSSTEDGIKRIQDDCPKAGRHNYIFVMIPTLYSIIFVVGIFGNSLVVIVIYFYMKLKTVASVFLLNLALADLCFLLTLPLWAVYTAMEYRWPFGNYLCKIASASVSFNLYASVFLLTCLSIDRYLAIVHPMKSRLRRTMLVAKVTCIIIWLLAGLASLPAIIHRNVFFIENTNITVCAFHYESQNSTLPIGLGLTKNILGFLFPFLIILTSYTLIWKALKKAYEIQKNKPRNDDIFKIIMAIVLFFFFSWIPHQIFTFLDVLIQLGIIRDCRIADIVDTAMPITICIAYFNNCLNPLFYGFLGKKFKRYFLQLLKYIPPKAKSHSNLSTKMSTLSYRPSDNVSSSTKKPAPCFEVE

MP41 [14] = experiment: Antiproliferative activity against human MP41 cells transfected with SiGNA11 assessed as reduction in cell viability measured after 72 hrs by CCK-8 method; assay type: functional, cell-based; settings: dose <= 10.0 µM
[15] = Antiproliferative activity against human MP41 cells assessed as reduction in cell viability measured after 72 hrs by CCK-8 method; assay type: functional, cell-based; settings: MP41, 72 h
[16] = Antiproliferative activity against human 921 cells assessed as reduction in cell viability measured after 72 hrs by CCK-8 method; assay type: functional, cell-based; settings: Homo sapiens, 921, 72 h
HEK-293T = experiment: Cytotoxicity against HEK293T cells assessed as reduction in cell viability at 10 uM measured after 72 hrs by CCK-8 method; assay type: toxicity, cell-based; settings: human
BEAS-2B = experiment: Cytotoxicity against human BEAS-2B cells assessed as reduction in cell viability at 10 uM measured after 72 hrs by CCK-8 method; assay type: toxicity, cell-based
[17] = target: T4, Type-1 angiotensin II receptor (Homo sapiens, UniProt P30556); experiment: as §1; assay type: cell-based
T4 sequence (P30556 whole entry): T3 sequence (whole entry)

[18] = Inhibition of Galphaq (unknown origin) preincubated for 1 hr followed by carbachol stimulation for 30 mins and measured after 1 hr by IP1 accumulation based HTRF assay; parameters: species or system Homo sapiens
[19] = Aqueous solubility of the compound in deionized water at 25 degreeC by HPLC analysis; assay type: physicochemical
[20] = Chemical stability of the compound assessed as compound remaining measured after 7 days by LC-MS analysis; assay type: physicochemical; settings: time 7 day; read-out: Stability
[21] = Metabolic stability in human liver microsomes assessed as intrinsic clearance preincubated for 15 mins followed by NADPH addition and measured upto 45 mins by LC-MS/MS analysis; assay type: ADME, Microsome; settings: time < 60 min, read-out: CLH
[22] = Metabolic stability in human liver microsomes assessed as half life preincubated for 15 mins followed by NADPH addition and measured upto 45 mins by LC-MS/MS analysis; assay type: ADME, Microsome; settings: time < 60 min

Chain of Transcriptional coactivator YAP1 (Homo sapiens) (P46937 whole entry): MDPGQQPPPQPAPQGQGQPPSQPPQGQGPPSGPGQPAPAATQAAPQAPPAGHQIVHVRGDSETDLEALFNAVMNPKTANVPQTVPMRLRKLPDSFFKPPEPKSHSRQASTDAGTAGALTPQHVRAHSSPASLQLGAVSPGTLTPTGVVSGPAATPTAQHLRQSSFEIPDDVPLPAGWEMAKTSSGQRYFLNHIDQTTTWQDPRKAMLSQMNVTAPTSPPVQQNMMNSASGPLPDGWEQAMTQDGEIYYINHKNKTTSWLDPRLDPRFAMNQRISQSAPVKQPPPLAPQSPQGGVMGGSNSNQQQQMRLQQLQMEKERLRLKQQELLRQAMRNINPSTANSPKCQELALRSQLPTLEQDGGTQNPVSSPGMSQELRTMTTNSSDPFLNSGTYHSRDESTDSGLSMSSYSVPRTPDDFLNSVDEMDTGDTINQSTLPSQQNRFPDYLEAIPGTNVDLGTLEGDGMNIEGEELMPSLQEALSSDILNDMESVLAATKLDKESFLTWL
T2 sequence (P27361 whole entry, looked up): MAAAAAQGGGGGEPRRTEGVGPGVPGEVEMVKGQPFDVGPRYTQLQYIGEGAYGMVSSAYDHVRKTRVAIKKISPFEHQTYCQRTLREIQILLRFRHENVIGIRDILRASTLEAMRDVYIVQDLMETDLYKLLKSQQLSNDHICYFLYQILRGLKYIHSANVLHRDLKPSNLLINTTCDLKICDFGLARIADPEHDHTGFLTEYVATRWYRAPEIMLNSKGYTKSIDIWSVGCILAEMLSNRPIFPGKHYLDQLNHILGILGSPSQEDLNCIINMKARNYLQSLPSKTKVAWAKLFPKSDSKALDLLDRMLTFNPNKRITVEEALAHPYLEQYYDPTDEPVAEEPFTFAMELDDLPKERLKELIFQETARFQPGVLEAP
T2 sequence (P28482 whole entry, looked up): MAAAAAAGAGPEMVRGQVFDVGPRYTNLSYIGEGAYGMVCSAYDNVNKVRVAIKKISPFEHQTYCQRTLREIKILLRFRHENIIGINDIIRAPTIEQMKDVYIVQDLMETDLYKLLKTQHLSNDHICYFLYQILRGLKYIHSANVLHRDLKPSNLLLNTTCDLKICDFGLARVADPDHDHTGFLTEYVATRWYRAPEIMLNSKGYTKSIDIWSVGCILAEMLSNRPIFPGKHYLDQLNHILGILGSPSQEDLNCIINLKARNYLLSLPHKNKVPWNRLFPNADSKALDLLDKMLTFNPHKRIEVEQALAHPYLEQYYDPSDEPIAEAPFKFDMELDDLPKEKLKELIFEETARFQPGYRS

Question: With `CC[C@H](C)[C@H](N)C(=O)N1CCn2cc(-c3ccc4c(c3)CCCC4)nc2[C@@H]1CC1CCCCC1` [listing 1 of 2 here] as the compound, how does the inhibition [1] read?
Answer: The inhibition was 18.3%.

Question: What about the Activity (A-375) of the same compound?
Answer: Its Activity is “inactive”.

Question: What about the Activity (SK-MEL-2) of the same compound?
Answer: The Activity was “inactive”.

Question: What about the Activity (MP41 [2]) of the same compound?
Answer: Its Activity is “Active”.

Question: What about the Activity 921 of the same compound?
Answer: Its Activity is “Active”.

Question: What about the inhibition (MP41 [3]) of the same compound?
Answer: Its inhibition is “Dose-Dependent Effect”.

Question: And the inhibition (MP41 [4])?
Answer: Its inhibition is “Dose-Dependent Effect”.

Question: What about the inhibition (MP41 [5]) of the same compound?
Answer: The inhibition was “Dose-Dependent Effect”.

Question: What about the inhibition [6] of the same compound?
Answer: Its inhibition is “Tde”.

Question: What about the Activity [7] of the same compound?
Answer: The Activity was “Tde”.

Question: What about the inhibition [8] of the same compound?
Answer: Its inhibition is “Dose-Dependent Effect”.

Question: And the inhibition [9]?
Answer: Its inhibition is “Dose-Dependent Effect”.

Question: And the Activity [10]?
Answer: The Activity was “Dose-Dependent Effect”.

Question: And the Activity [11]?
Answer: The Activity was “Dose-Dependent Effect”.

Question: What about the Activity [12] of the same compound?
Answer: The Activity was “Active”.

Question: What about the inhibition [13] of the same compound?
Answer: Its inhibition is “Dose-Dependent Effect”.

Question: And the Activity (MP41 [14])?
Answer: Its Activity is “Dose-Dependent Effect”.

Question: With `CC[C@H](C)[C@H](N)C(=O)N1CCn2cc(-c3ccc4c(c3)CCCC4)nc2[C@@H]1CC1CCCCC1` [listing 2 of 2 here] as the compound, how does the pIC50 [15] read?
Answer: The pIC50 was 5.46.

Question: And the pIC50 [16]?
Answer: The pIC50 was 5.17.

Question: What about the Activity (HEK-293T) of the same compound?
Answer: The Activity was “Non-Toxic”.

Question: And the Activity (BEAS-2B)?
Answer: Its Activity is “Non-Toxic”.

Question: And the pIC50 [17]?
Answer: The pIC50 was 5.05.

Question: What about the pIC50 [18] of the same compound?
Answer: The pIC50 was 4.64.

Question: For `CC[C@H](C)[C@H](N)C(=O)N1CCn2cc(-c3ccc4c(c3)CCCC4)nc2[C@@H]1CC1CCCCC1.O=C(O)C(F)(F)F`, which solubility [19] is on record?
Answer: The solubility was 9190 µg/mL.

Question: What about the remaining at 168 h [20] of the same compound?
Answer: The remaining at 168 h was 98.5%.

Question: And the CLint scaled [21]?
Answer: Its CLint scaled is 16.4 mL/min/kg.

Question: And the half-life [22]?
Answer: The half-life was 1.77 h.

Reference: ChEMBL document CHEMBL5352382, “Synthesis and evaluation of imidazo[1,2-a]pyrazine derivatives as small molecule Gαq/11 inhibitors against uveal melanoma” (Eur J Med Chem, 2022)
